Source: patent US20220049015A1, “COMPOSITIONS AND METHODS FOR THE TREATMENT AND/OR PREVENTION OF HER2+ CANCERS” (DUKE UNIVERSITY, priority 2018, published 2022)

Tested on: MM3MG-HER2Δ16 cells
Experiment: In vitro ADCP and ADCC by bone marrow derived macrophages (BMDM)
Assay type: cell-based, mouse
Settings: Concanamycin A 1 μM in BMDM co-culture
Procedure: MM3MG-HER2Δ16 cells were labeled with Brilliant Violet 450 Dye, and co-cultured with BMDM (3:1 ratio) with control or anti-HER2 antibodies (10 μg/mL). ADCP rates were measured by percentage of BMDM uptake of labeled tumor cells (CD45+and BV450+), and Antibody-dependent-cellular-cytotoxicity (ADCC) rates were measured by percentage of dying free tumor cells (CD45− and LIVE/DEAD stain+). […] All data represent mean ±SEM, **P<0.01, ***P<0.001, ****P<0.0001.
ADCP and ADCC by macrophages—Bone marrow derived macrophages (BMDM) were generated from mouse tibia, differentiated for 10 days with 50 ng/mL mouse MCSF (Peprotech 315-02). Briefly, 50 million bone marrow cells were plated in 10 cm^2 tissue culture dish with MCSF on day 0. Unattached cells in supernatant were removed and fresh media+MC SF were added on day 3, day 6 and day 9. BMDM were used for ADCP/ADCC assays on day 10. Tumor cells MM3MG-HER2416 were labeled with Brilliant Violet 450 Dye (BD 562158) according to manufacturer's protocol, and incubated with control or anti-HER2 antibodies (10 μg/mL) in 96-wells (100,000 cells/well) for 30 minutes at 37° C. BMDM were then added for co-culture at a 3:1 ratio of Tumor vs BMDM. After 2 hours co-culture, phagocytosis of BV450-labeled tumor cells by BMDM were analyzed by FACS with CD45-APC staining and Live-death (Red) staining. […]

## C/C=C/[C@H]1O[C@@](O)([C@@H](C)[C@H](O)[C@H](C)[C@H]2OC(=O)/C(OC)=C/C(C)=C/[C@@H](C)[C@@H](O)[C@@H](CC)[C@@H](O)[C@H](C)C/C(C)=C/C=C/[C@@H]2OC)C[C@@H](O[C@H]2C[C@@H](O)[C@H](OC(N)=O)[C@@H](C)O2)[C@@H]1C [Concanamycin A]
  effect of ADCC inhibitor on HER2 mAb activities: had no effect on HER2 mAb activities
